Test results from patent US20030118514A1, “Compositions for inhalation” (Glaxo Wellcome Inc., priority 1998, published 2003).
Like-named read-outs stand apart in the source and are kept apart here.

Key:
[1] = Fine particle fraction of salbutamol sulphate blended with Lactochem lactose (Example 7); type: physicochemical; details: after blending with Lactochem lactose
[2] = Mass median diameter of salbutamol sulphate particles; type: physicochemical

fine particle fraction (<6.4 μm) [1] [% recovered dose]	mass median diameter [2] [μm]	mass median diameter ([2]; listed as elongated crystals (needle shaped) of salbutamol sulphate) [μm]	Substance
10.8	4.79		salbutamol sulphate [micronised salbutamol sulphate]
22.8		5.49	salbutamol sulphate [recrystallised salbutamol sulphate]
